Assay results as given in ChEMBL document CHEMBL4229381, “New cytokinin derivatives possess UVA and UVB photoprotective effect on human skin cells and prevent oxidative stress” (Eur J Med Chem, 2018).
Calls of active or inactive are those of the source. The rule behind the calls is not given here.

Assays:
HaCaT [1] = experiment: Cytotoxicity in human HaCaT cells assessed as reduction in cell viability at 50 uM after 24 hrs by resazurin dye-based fluorescence assay relative to control
HaCaT [2] = experiment: Cytoprotection against phototoxicity in human HaCaT cells assessed as increase in cell viability at 3.9 uM preincubated for 60 mins followed by 10 J/cm2 UVA irradiation and measured after 24 hrs by neutral red uptake assay; type: functional, cell-based
Nicotiana tabacum = experiment: Growth promoting activity in tobacco callus assessed as callus weight at 10^-5 mol/L after 4 weeks relative to control; type: functional
[3] = Cytotoxicity in human NHDF cells assessed as cell viability at 3.9 uM after 24 hrs by neutral red uptake assay relative to control; type: cell-based; conditions: read-out: Activity
Caenorhabditis elegans [4] = experiment: Protection against juglone-induced oxidative stress in Caenorhabditis elegans BA17 (fem-1) at 100 uM preincubated for 3 days followed by juglone addition measured every hour for 12 ro 14 hrs by inverted microscopic analysis; type: functional, organism-based
NHDF [5] = experiment: Cytoprotection against phototoxicity in human NHDF cells assessed as increase in cell viability at 3.9 to 31.3 uM preincubated for 60 mins followed by 150 mJ/cm2 UVB irradiation and measured after 24 hrs by neutral red uptake assay; type: functional, cell-based
NHDF [6] = experiment: Cytoprotection against phototoxicity in human NHDF cells assessed as increase in cell viability at 3.9 uM preincubated for 60 mins followed by 7.5 J/cm2 UVA irradiation and measured after 24 hrs by neutral red uptake assay; type: functional, cell-based
NHDF [7] = experiment: Cytoprotection against phototoxicity in human NHDF cells assessed as increase in cell viability at 31.3 uM preincubated for 60 mins followed by 150 mJ/cm2 UVB irradiation and measured after 24 hrs by neutral red uptake assay; type: functional, cell-based
[8] = Phototoxicity in human HaCaT cells assessed as cell viability at 15.6 uM preincubated for 60 mins followed by 7.5 J/cm2 UVA irradiation and measured after 24 hrs by neutral red uptake assay relative to control; type: cell-based; conditions: read-out: Activity
NHDF [9] = experiment: Potency index, ratio of compound effect to rosmarinic acid effect for cytoprotection against phototoxicity in human NHDF cells assessed as increase in cell viability at 3.9 uM preincubated for 60 mins followed by 7.5 J/cm2 UVA irradiation and measured after 24 hrs by neutral red uptake assay; type: functional
[10] = Phototoxicity in human NHDF cells assessed as cell viability at 15.6 uM preincubated for 60 mins followed by 5 J/cm2 UVA irradiation and measured after 24 hrs by neutral red uptake assay relative to control; type: cell-based; conditions: read-out: Activity
[11] = Stability of the compound in pH 4 solution at 10^-4 M after 24 hrs by HPLC analysis; type: physicochemical; conditions: read-out: Stability
[12] = Phototoxicity in human NHDF cells assessed as cell viability at 125 uM preincubated for 60 mins followed by 5 J/cm2 UVA irradiation and measured after 24 hrs by neutral red uptake assay relative to control; type: cell-based; conditions: read-out: Activity
[13] = Stability of the compound in pH 6 solution at 10^-4 M after 1 hr by HPLC analysis; type: physicochemical; conditions: read-out: Stability
[14] = Phototoxicity in human NHDF cells assessed as cell viability at 7.8 uM preincubated for 60 mins followed by 5 J/cm2 UVA irradiation and measured after 24 hrs by neutral red uptake assay relative to control; type: cell-based; conditions: read-out: Activity
NHDF [15] = experiment: Cytoprotection against phototoxicity in human NHDF cells assessed as increase in cell viability at 3.9 to 31.3 uM preincubated for 60 mins followed by 7.5 J/cm2 UVA irradiation and measured after 24 hrs by neutral red uptake assay; type: functional, cell-based
[16] = Cytotoxicity in human HaCaT cells assessed as cell viability at 31.3 uM after 24 hrs by neutral red uptake assay relative to control; type: cell-based; conditions: read-out: Activity
[17] = Stability of the compound in pH 6 solution at 10^-4 M after 24 hrs by HPLC analysis; type: physicochemical; conditions: read-out: Stability
HaCaT [18] = experiment: Cytoprotection against phototoxicity in human HaCaT cells assessed as increase in cell viability at 3.9 to 31.3 uM preincubated for 60 mins followed by 10 J/cm2 UVA irradiation and measured after 24 hrs by neutral red uptake assay; type: functional, cell-based
[19] = Phototoxicity in human HaCaT cells assessed as cell viability at 7.8 uM preincubated for 60 mins followed by 7.5 J/cm2 UVA irradiation and measured after 24 hrs by neutral red uptake assay relative to control; type: cell-based; conditions: read-out: Activity
[20] = Cytotoxicity in human NHDF cells assessed as cell viability at 15.6 uM after 24 hrs by neutral red uptake assay relative to control; type: cell-based; conditions: read-out: Activity
[21] = Cytotoxicity in human HaCaT cells assessed as cell viability at 3.9 uM after 24 hrs by neutral red uptake assay relative to control; type: cell-based; conditions: read-out: Activity
[22] = Cytotoxicity in human HaCaT cells assessed as cell viability at 125 uM after 24 hrs by neutral red uptake assay relative to control; type: cell-based; conditions: read-out: Activity
[23] = Phototoxicity in human HaCaT cells assessed as cell viability at 3.9 uM preincubated for 60 mins followed by 7.5 J/cm2 UVA irradiation and measured after 24 hrs by neutral red uptake assay relative to control; type: cell-based; conditions: read-out: Activity
[24] = Cytotoxicity in human NHDF cells assessed as cell viability at 7.8 uM after 24 hrs by neutral red uptake assay relative to control; type: cell-based; conditions: read-out: Activity
[25] = Phototoxicity in human HaCaT cells assessed as cell viability at 62.5 uM preincubated for 60 mins followed by 7.5 J/cm2 UVA irradiation and measured after 24 hrs by neutral red uptake assay relative to control; type: cell-based; conditions: read-out: Activity
[26] = Cytotoxicity in human HaCaT cells assessed as cell viability at 15.6 uM after 24 hrs by neutral red uptake assay relative to control; type: cell-based; conditions: read-out: Activity
[27] = Stability of the compound in pH 5 solution at 10^-4 M after 1 hr by HPLC analysis; type: physicochemical; conditions: read-out: Stability
Caenorhabditis elegans [28] = experiment: Protection against juglone-induced oxidative stress in wild type Caenorhabditis elegans N2 at 100 uM preincubated for 3 days followed by juglone addition and measured after 4 hrs by inverted microscopic analysis; type: functional, organism-based
[29] = Phototoxicity in human NHDF cells assessed as cell viability at 3.9 uM preincubated for 60 mins followed by 5 J/cm2 UVA irradiation and measured after 24 hrs by neutral red uptake assay relative to control; type: cell-based; conditions: read-out: Activity
[30] = Cytotoxicity in human NHDF cells assessed as cell viability at 62.5 uM after 24 hrs by neutral red uptake assay relative to control; type: cell-based; conditions: read-out: Activity
[31] = Cytotoxicity in human HaCaT cells assessed as cell viability at 7.8 uM after 24 hrs by neutral red uptake assay relative to control; type: cell-based; conditions: read-out: Activity
Triticum aestivum = experiment: Anti-senescent activity in leaf of Triticum aestivum cv. Hereward seedlings by measuring chlorophyll retention at 10^-4 mol/L after 4 days relative to control; type: functional
HaCaT [32] = experiment: Potency index, ratio of compound effect to rosmarinic acid effect for cytoprotection against phototoxicity in human HaCaT cells assessed as increase in cell viability at 3.9 uM preincubated for 60 mins followed by 10 J/cm2 UVA irradiation and measured after 24 hrs by neutral red uptake assay; type: functional
HaCaT [33] = experiment: Potency index, ratio […] for cytoprotection against phototoxicity in human HaCaT cells assessed as increase in cell viability at 3.9 preincubated for 60 mins followed by 150 mJ/cm2 UVB irradiation and measured after 24 hrs by neutral red uptake assay; type: functional
[34] = Stability of the compound in pH 4 solution at 10^-4 M after 1 hr by HPLC analysis; type: physicochemical; conditions: read-out: Stability

Q: Which results are given for `c1csc(CNc2ncnc3c2ncn3C2CCCO2)c1` (stereo unspecified)?
A: Activity (HaCaT [1]): < 10%; Activity (HaCaT [2]): Active; Activity (Nicotiana tabacum): 105%; viability at 24 h, 3.9 µM [3]: 100%; Activity (Caenorhabditis elegans [4]): Active; Activity (NHDF [5]): Active; Activity (NHDF [6]): Active; Activity (NHDF [7]): Active; viability at 24 h, 15.6 µM [8]: 121%; Ratio (NHDF [9]): >6; viability at 24 h, 15.6 µM [10]: 101%; remaining at 24 h, 100 µM [11]: 52.1%; viability at 24 h, 125 µM [12]: 106%; remaining at 1 h, 100 µM [13]: 100%; viability at 24 h, 7.8 µM [14]: 102%; Activity (NHDF [15]): Active; viability at 24 h, 31.3 µM [16]: 102%; remaining at 24 h, 100 µM [17]: 100%; Activity (HaCaT [18]): Active; viability at 24 h, 7.8 µM [19]: 124%; viability at 24 h, 15.6 µM [20]: 100%; viability at 24 h, 3.9 µM [21]: 101%; viability at 24 h, 125 µM [22]: 103%; viability at 24 h, 3.9 µM [23]: 123%; viability at 24 h, 7.8 µM [24]: 103%; viability at 24 h, 62.5 µM [25]: 130%; viability at 24 h, 15.6 µM [26]: 100%; remaining at 1 h, 100 µM [27]: 100%; Activity (Caenorhabditis elegans [28]): Active; viability at 24 h, 3.9 µM [29]: 98%; viability at 24 h, 62.5 µM [30]: 108%; viability at 24 h, 7.8 µM [31]: 101%; Activity (Triticum aestivum): 102%; Ratio (HaCaT [32]): 3; Ratio (HaCaT [33]): >2; remaining at 1 h, 100 µM [34]: 99.4%
